Results published in PubChem BioAssay AID248 (DTP/NCI, 2004).
Several values for one entry are separate records, joined by “and”; a condition that tells them apart may be missing. Identical values can stand only once. Inconclusive results and toxic doses are left out.

Tested on: L1210 leukemia ip in BDF1 mice, survival T/C
Assay: NCI In Vivo Anticancer Drug Screen. Data for tumor model L1210 Leukemia (intraperitoneal) in B6D2F1 (BDF1) mice
Conditions: endpoint: mean survival time, higher = longer survival
In short: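 Antitumor effect is assessed in tumor-bearing animals. Survival in the compound arm is compared with a vehicle-dosed control arm and expressed as their quotient.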

[1] = dose: 100.0 mg/kg/injection, schedule: Q04DX003 (ip), vehicle: saline with Tween-80
[2] = dose: 200.0 mg/kg/injection, schedule: Q04DX003 (ip), vehicle: saline with Tween-80
[3] = dose: 400.0 mg/kg/injection, schedule: Q04DX003 (ip), vehicle: saline with Tween-80
[4] = dose: 100.0 mg/kg/injection, schedule: Q01DX001 (ip), vehicle: saline with Tween-80
[5] = dose: 100.0 mg/kg/injection, schedule: Q01DX009 (ip), vehicle: saline with Tween-80
[6] = dose: 100.0 mg/kg/injection, schedule: Q04DX002 (ip), vehicle: saline with Tween-80
[7] = dose: 200.0 mg/kg/injection, schedule: Q01DX001 (ip), vehicle: saline with Tween-80
[8] = dose: 200.0 mg/kg/injection, schedule: Q01DX009 (ip), vehicle: saline with Tween-80
[9] = dose: 200.0 mg/kg/injection, schedule: Q04DX002 (ip), vehicle: saline with Tween-80
[10] = dose: 400.0 mg/kg/injection, schedule: Q01DX001 (ip), vehicle: saline with Tween-80
[11] = dose: 400.0 mg/kg/injection, schedule: Q04DX002 (ip), vehicle: saline with Tween-80
[12] = dose: 100.0 mg/kg/injection, schedule: Q04DX003 (ip), vehicle: Klucel (hydroxypropylcellulose) (HPC)
[13] = dose: 200.0 mg/kg/injection, schedule: Q04DX003 (ip), vehicle: Klucel (hydroxypropylcellulose) (HPC)
[14] = dose: 400.0 mg/kg/injection, schedule: Q04DX003 (ip), vehicle: Klucel (hydroxypropylcellulose) (HPC)
[15] = dose: 100.0 mg/kg/injection, schedule: Q01DX009 (ip), vehicle: Klucel (hydroxypropylcellulose) (HPC)
[16] = dose: 400.0 mg/kg/injection, schedule: Q01DX009 (ip), vehicle: Klucel (hydroxypropylcellulose) (HPC)
[17] = dose: 100.0 mg/kg/injection, schedule: Q01DX001 (ip), vehicle: saline
[18] = dose: 400.0 mg/kg/injection, schedule: Q01DX009 (ip), vehicle: saline with Tween-80

O=[N+]([O-])c1c(-c2ccccc2)no[n+]1[O-]
T/C (dose: 40.0 mg/kg/injection, schedule: Q04DX003 (ip), vehicle: Klucel (hydroxypropylcellulose) (HPC)): 91 % of control | T/C (dose: 80.0 mg/kg/injection, schedule: Q04DX003 (ip), vehicle: Klucel (hydroxypropylcellulose) (HPC)): 96 % of control

Cc1cc(C(=O)O)c(C)cc1C(=O)O
T/C [1]: 98 % of control | T/C [2]: 93 % of control | T/C [3]: 98 % of control

O=S(=O)(c1ccccc1)C(Cl)c1cccc(Cl)c1 (centres undefined)
T/C (dose: 100.0 mg/kg/injection, schedule: Q04DX002 (ip), vehicle: Klucel (hydroxypropylcellulose) (HPC)): 105 % of control | T/C (dose: 200.0 mg/kg/injection, schedule: Q04DX002 (ip), vehicle: Klucel (hydroxypropylcellulose) (HPC)): 101 % of control | T/C (dose: 400.0 mg/kg/injection, schedule: Q04DX002 (ip), vehicle: Klucel (hydroxypropylcellulose) (HPC)): 122 % of control

O=C(O)CC(NC(=O)OCc1ccccc1)c1ccccc1 (centres undefined)
T/C [4]: 92 % of control | T/C [5]: 93 % of control and 102 % of control | T/C [6]: 110 % of control | T/C [1]: 97 % of control | T/C [7]: 90 % of control | T/C [8]: 98 % of control and 91 % of control | T/C [9]: 95 % of control | T/C [2]: 92 % of control | T/C [10]: 92 % of control | T/C [11]: 100 % of control | T/C [3]: 93 % of control

COc1ccc(NC(=O)COc2cccc(Cl)c2)cc1S(=O)(=O)F
T/C (dose: 25.0 mg/kg/injection, schedule: Q04DX003 (ip), vehicle: gum acacia): 98 % of control | T/C (dose: 50.0 mg/kg/injection, schedule: Q04DX003 (ip), vehicle: gum acacia): 95 % of control | T/C (dose: 100.0 mg/kg/injection, schedule: Q04DX003 (ip), vehicle: gum acacia): 101 % of control | T/C (dose: 200.0 mg/kg/injection, schedule: Q04DX003 (ip), vehicle: gum acacia): 95 % of control | T/C (dose: 400.0 mg/kg/injection, schedule: Q04DX003 (ip), vehicle: gum acacia): 92 % of control

CCOC(=O)Nc1cccc2ccccc12
T/C [12]: 101 % of control | T/C [13]: 97 % of control | T/C [14]: 98 % of control

COC(=O)/C=C(\C)Oc1c(Cl)c(Cl)c(Cl)c(Cl)c1Cl
T/C (dose: 100.0 mg/kg/injection, schedule: Q01DX009 (ip), vehicle: saline sonified): 96 % of control | T/C (dose: 200.0 mg/kg/injection, schedule: Q01DX009 (ip), vehicle: saline sonified): 100 % of control | T/C (dose: 400.0 mg/kg/injection, schedule: Q01DX009 (ip), vehicle: saline sonified): 100 % of control

NC(=O)C(c1ccccc1)N1CCCCC1 (centres undefined)
T/C (dose: 25.0 mg/kg/injection, schedule: Q01DX009 (ip), vehicle: Klucel (hydroxypropylcellulose) (HPC)): 87 % of control | T/C (dose: 25.0 mg/kg/injection, schedule: Q04DX003 (ip), vehicle: Klucel (hydroxypropylcellulose) (HPC)): 96 % of control | T/C (dose: 50.0 mg/kg/injection, schedule: Q01DX009 (ip), vehicle: Klucel (hydroxypropylcellulose) (HPC)): 96 % of control | T/C (dose: 50.0 mg/kg/injection, schedule: Q04DX003 (ip), vehicle: Klucel (hydroxypropylcellulose) (HPC)): 100 % of control | T/C [15]: 97 % of control | T/C [12]: 92 % of control and 90 % of control

CN(C)/N=N\c1nc[nH]c1C(=O)N1CCCC1
T/C [4]: 100 % of control | T/C [7]: 105 % of control | T/C [8]: 150 % of control and 206 % of control | T/C [10]: 111 % of control

CC(C)(C)NC(=O)NCCc1ccccc1
T/C [15]: 106 % of control | T/C [12]: 96 % of control | T/C [13]: 97 % of control and 89 % of control | T/C [16]: 103 % of control | T/C [14]: 91 % of control and 92 % of control

CC1=NCCN1CCNC(=O)c1ccc(C(=O)NCCN2CCN=C2C)cc1
T/C (dose: 5.0 mg/kg/injection, schedule: Q01DX001 (ip), vehicle: saline): 103 % of control | T/C (dose: 10.0 mg/kg/injection, schedule: Q01DX001 (ip), vehicle: saline): 101 % of control

CNC1(c2ccc(F)cc2)CCCCC1
T/C (dose: 50.0 mg/kg/injection, schedule: Q01DX001 (ip), vehicle: saline): 98 % of control | T/C [17]: 98 % of control

Cc1cc(C)c(C(=O)C2CC=CCC2c2c(C)cc(C)cc2C)c(C)c1 (centres undefined)
T/C [12]: 101 % of control | T/C [13]: 94 % of control | T/C [14]: 95 % of control

OCCOc1cc(Cl)c(Cl)cc1Cl
T/C (dose: 25.0 mg/kg/injection, schedule: Q04DX003 (ip), vehicle: carboxymethylcellulose (CMC)): 95 % of control | T/C (dose: 50.0 mg/kg/injection, schedule: Q01DX009 (ip), vehicle: carboxymethylcellulose (CMC)): 93 % of control and 102 % of control | T/C (dose: 50.0 mg/kg/injection, schedule: Q04DX003 (ip), vehicle: carboxymethylcellulose (CMC)): 101 % of control | T/C (dose: 100.0 mg/kg/injection, schedule: Q01DX009 (ip), vehicle: carboxymethylcellulose (CMC)): 101 % of control and 103 % of control | T/C [5]: 103 % of control | T/C (dose: 100.0 mg/kg/injection, schedule: Q04DX002 (ip), vehicle: carboxymethylcellulose (CMC)): 102 % of control and 103 % of control | T/C (dose: 100.0 mg/kg/injection, schedule: Q04DX003 (ip), vehicle: carboxymethylcellulose (CMC)): 95 % of control | T/C [8]: 87 % of control | T/C (dose: 200.0 mg/kg/injection, schedule: Q04DX002 (ip), vehicle: carboxymethylcellulose (CMC)): 103 % of control

CC1(Cc2ccccc2)CCC(=O)O1 (centres undefined)
T/C [5]: 98 % of control | T/C [1]: 98 % of control | T/C [8]: 100 % of control | T/C [2]: 96 % of control | T/C [18]: 87 % of control | T/C [3]: 104 % of control

CC(=O)NC1C(NC(=O)CC(NC(=O)OCc2ccccc2)C(=O)O)OC(COC(C)=O)C(OC(C)=O)C1OC(C)=O (centres undefined)
T/C (dose: 50.0 mg/kg/injection, schedule: Q04DX002 (ip), vehicle: saline): 91 % of control | T/C (dose: 100.0 mg/kg/injection, schedule: Q04DX002 (ip), vehicle: saline): 94 % of control | T/C (dose: 200.0 mg/kg/injection, schedule: Q04DX002 (ip), vehicle: saline): 100 % of control

CN(C)C1CCCC(OC(=O)c2ccccc2)C1 (centres undefined)
T/C (dose: 100.0 mg/kg/injection, schedule: Q04DX003 (ip), vehicle: saline sonified): 98 % of control

O=S(=O)(Nc1ccccc1)c1ccc([As](=O)(O)O)cc1
T/C [17]: 103 % of control

CC1N=C(c2ccc(N)cc2)OC1C (centres undefined)
T/C (dose: 100.0 mg/kg/injection, schedule: Q01DX001 (ip), vehicle: Klucel (hydroxypropylcellulose) (HPC)): 102 % of control | T/C (dose: 200.0 mg/kg/injection, schedule: Q01DX001 (ip), vehicle: Klucel (hydroxypropylcellulose) (HPC)): 98 % of control | T/C (dose: 400.0 mg/kg/injection, schedule: Q01DX001 (ip), vehicle: Klucel (hydroxypropylcellulose) (HPC)): 100 % of control

c1ccc(-c2sc(-c3ccccc3)c(-c3ccccc3)c2-c2ccccc2)cc1
T/C [12]: 93 % of control | T/C [13]: 95 % of control | T/C [14]: 95 % of control

O=[N+]([O-])c1ccc(-c2ccccc2)cc1
T/C [17]: 102 % of control | T/C (dose: 200.0 mg/kg/injection, schedule: Q01DX001 (ip), vehicle: saline): 105 % of control | T/C (dose: 400.0 mg/kg/injection, schedule: Q01DX001 (ip), vehicle: saline): 105 % of control

Cc1ccc(C(=O)/C=C/c2cccc3ccccc23)cc1
T/C [5]: 102 % of control | T/C [6]: 97 % of control | T/C [8]: 96 % of control | T/C [9]: 97 % of control | T/C [18]: 96 % of control | T/C [11]: 94 % of control

COc1ccccc1NC(=O)c1ccc(Cl)cc1Cl
T/C [15]: 98 % of control | T/C [12]: 100 % of control | T/C (dose: 200.0 mg/kg/injection, schedule: Q01DX009 (ip), vehicle: Klucel (hydroxypropylcellulose) (HPC)): 93 % of control | T/C [13]: 96 % of control | T/C [16]: 93 % of control | T/C [14]: 97 % of control

CC1(C)OCC2SC(n3cnc4c(N)ncnc43)C(OS(C)(=O)=O)C2O1 (centres undefined)
T/C (dose: 100.0 mg/kg/injection, schedule: Q01DX005 (ip), vehicle: saline): 97 % of control | T/C (dose: 200.0 mg/kg/injection, schedule: Q01DX005 (ip), vehicle: saline): 90 % of control

Cc1cc(OC(=O)Nc2ccc(Cl)cc2Cl)c(C)cc1Cl
T/C (dose: 12.5 mg/kg/injection, schedule: Q01DX009 (ip), vehicle: saline with Tween-80): 95 % of control | T/C (dose: 25.0 mg/kg/injection, schedule: Q01DX009 (ip), vehicle: saline with Tween-80): 91 % of control | T/C (dose: 50.0 mg/kg/injection, schedule: Q01DX009 (ip), vehicle: saline with Tween-80): 91 % of control | T/C [5]: 98 % of control
